Test results: PubChem BioAssay (NCI)
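In this assay, cells in 96-well plates receive the compound at five concentrations for 48 hours. Endpoints are linearly interpolated between the surrounding concentrations. Definition used: TGI = concentration required for complete inhibition of growth.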

Assays:
Assay in all cases: NCI tumour cell line growth inhibition, 48 h
SW-620 colon = tested on: SW-620 colon
UO-31 renal = tested on: UO-31 renal
KM12 colon = tested on: KM12 colon
RXF 393 renal = tested on: RXF 393 renal
HCC-2998 colon = tested on: HCC-2998 colon
SK-MEL-5 melanoma = tested on: SK-MEL-5 melanoma
SNB-75 CNS = tested on: SNB-75 CNS
MDA-MB-435 = tested on: MDA-MB-435
U251 CNS = tested on: U251 CNS
OVCAR-3 ovarian = tested on: OVCAR-3 ovarian
786-0 renal = tested on: 786-0 renal
MDA-MB-231 breast = tested on: MDA-MB-231 breast
PC-3 prostate = tested on: PC-3 prostate
OVCAR-5 ovarian = tested on: OVCAR-5 ovarian
SF-268 CNS = tested on: SF-268 CNS
SK-OV-3 ovarian = tested on: SK-OV-3 ovarian
BT-549 breast = tested on: BT-549 breast
A498 renal = tested on: A498 renal

Measured: TGI

C=CCN1CCC(c2cc(C(=O)OCC)[nH]c2-c2cc(C)no2)C1=O (stereo unspecified)
> 100 µM: all assays above

CCOc1ccc(NC(=O)C(=O)Nn2c(N)nnc2N)cc1
> 100 µM: all assays above
